From patent US12054485B2, “Substituted imidazoquinolines” (BIONTECH SE, priority 2017, dated 2024)

Tested on: Human PBMCs
Assay: IFN-α induction by TLR agonists in human PBMCs (Luminex)
Assay type: cell-based
Details: 24 h incubation, maximum of bell-shaped curve over 0.0003-1 μM, Table 1
Procedure: 1) IFN-α Induction Assay—IFN-α induction by TLR Agonists in Human PBMCs
Abbreviations: BSA=bovine serum albumine; PBS=phosphate buffer pH 7.4; PE=phycoerythrin; EDC=1-ethyl-3-(3-dimethylaminopropyl)carbodiimide hydrochloride.
Materials and Devices: Bio Plex 200 Luminex device, and BioPlex Manager software; MultiScreen Filter Plates (Millipore, MABVN1250); low binding reaction vials 1.5 ml (Sarstedt, 72.706.600); Activation Buffer: 0.1M Na-dihydrogen phosphate, 0.1M Di-Na hydrogen phosphate pH 6.2; Sulfo-NHS (N-hydroxysulfosuccinimide) solution: 50 mg/ml in water (freshly prepared); EDC solution: 50 mg/ml in water (freshly prepared); Coupling Buffer: PBS; Washing Buffer: PBS+0.05% Tween20; Blocking Buffer: PBS+10 mg/ml BSA+0.05% sodium azide; Assay Buffer: PBS+10 mg/ml BSA;
Other materials and devices (pipets, reaction vessels, shaker, etc.) were standard lab equipment; water was MilliQ grade quality, buffers were sterile filtered before use.
(Pre-)Incubation of Cells:
In each well of a 96-well U-bottom plate 200,000 PBMCs were pre-incubated in medium (RPMI1640-Gibco #61870-044+10% FBS+1% L-glutamine) for 5 hours at 37° C. and 5% CO2 before the compounds of the present invention or controls were added, respectively. Upon addition of compounds of the present invention or controls, the cells are incubated for another 24 h at 37° C. and 5% CO2.
Luminex assay, Step 1: Coupling of antibody to beads: • transfer a suspension (beads are stored in buffer as provided by manufacturer) of about 5 million MicroPlex Microspheres (=beads) into a low binding reaction vial • centrifuge bead suspension for 1 min at 10,000 g, discard supernatant and resuspend pellet in 160 μl Activation Buffer, repeat once • add 20 μl Sulfo-NHS solution and 20 μl EDC solution, vortex • incubate for 20 min in the absence of light • centrifuge bead suspension for 1 min at 10,000 g, discard supernatant and resuspend pellet in 500 μl Coupling Buffer, repeat once • add capture antibody (CaptureAK eBioscience #BMS160, 5 μg per 1 Mio beads) • incubate 2 h at RT in the absence of light while swaying • centrifuge bead suspension for 1 min at 10,000 g, discard supernatant and resuspend pellet in 500 μl Washing Buffer, repeat once • centrifuge bead suspension for 1 min at I0,000 g, discard supernatant and resuspend pellet in 100 μl Blocking Buffer
Luminex assay, Step 2: Measurement • add 100 μlAssay Buffer into each filter plate well (seal any unused wells with adhesive tape), then remove buffer • add about 2,000 beads per well per analyte (per analyte, a different bead type with distinct fluorescence color is used), suspended in […] of Assay Buffer • remove buffer and wash twice with 100 μl Washing Buffer per well • per well, add 50 μl sample solution from the (pre-)incubation step (cell supernatant), or Standard (IFN-α standard eBioscience #BMS216MST—concentration gradient, highest standard concentration 2500 pg/ml) or Assay Buffer (as blanks) • shake plate • incubate plate for 2 h at RT in the absence of light, while swaying the plate • wash three times with 100 μl Washing Buffer per well • add 25 μl antibody detection mix (DetectionAK eBioscience #BMS1016BT diluted 1:1000) in Assay Buffer per well, then vortex plate • incubate plate for 1 h at RT in the absence of light, while swaying the plate • wash three times with 100 μl Washing Buffer per well • add 50 μl Streptavidin/PE (diluted 1:200 in Assay Buffer) per well, then vortex plate • incubate plate for 10 min at RT in the absence of light, while swaying the plate • wash three times with 100 μl Washing Buffer per well • add 100 μl Assay Buffer per well, then vortex plate • start Luminex measurement according to manufacturer's instructions, measuring at least 50 beads per well per analyte
The compounds were tested at 8 different concentrations (1 μM, 0.3 μM, 0.1 μM, 0.03 μM, 0.01 μM 0.003 μM, 0.001 μM, 0.0003 μM) using a half-logarithmic dilution. […]

## CCc1nc2c(N)nc3ccccc3c2n1CCCCN(C(C)=O)C1CCOCC1 [Example 1, N-(4-(4-Amino-2-ethyl-1H-imidazo[4,5-c]quinolin-1-yl)butyl)-N-(tetrahydro-2H-pyran-4-yl)acetamide]
  Maximum IFN-α release: 1750 pg/mL
